Test results reported in patent US20230121197A1, “ANTIBODIES SPECIFICALLY BINDING THE CARBOXYMETHYLATED CATALYTIC SUBUNIT OF PROTEIN PHOSPHATASE 2A” (Medizinische Universität Wien, priority 2020, published 2023).

System: LNCaP LCMT1 knockdown lines
Test: Colony formation and cell viability (cell titer glo) in LCMT1 knockdown prostate cancer cells
Format: cell-based, human
Settings: colony formation (20 uM, 10-12 days) and cell viability (96 hours)

CNC(=O)c1ccc(N2C(=S)N(c3ccc(C#N)c(C(F)(F)F)c3)C(=O)C2(C)C)cc1F [enzalutamide]
effect of LCMT1 knockdown on response to enzalutamide: decreased sensitivity
